Patent publication US4734280A, “Treatment or prevention of PAF Acether-induced maladies” (priority 1984, dated 1988)
Where two headings read alike, the source gives them in different places.

Columns and labels:
Sprague-Dowley rats = test: Cutaneous vascular hyperpermeability induced by PAF Acether in the rat; assay type: in vivo; conditions: 1 mg/kg IV; for PAF Acether induced wheal, Surface: PAF Acether 25 ng intradermal, 30 mn; for PAF Acether induced wheal, Surface / PAF Acether induced wheal, Coloration OD: p < 0.001; for PAF Acether induced wheal, Coloration OD: optical density at 620 nm; for PAF Acether induced wheal, Coloration % decrease / PAF Acether induced wheal, Surface % decrease: vs control
Description: Method: Intradermal injection of 25 ng of PAF Acether in the dorsal region of the rat with simultaneous IV injection of Evans blue dye (60 mg/kg/5 ml) induces vascular hyperpermeability and wheals formation. (for details see Basran GS, Page CP, Paul W and Morley J-Cromoglycate inhibits responses to platelet-activating factor (PAF Acether) in man: an alternative mode of action for DSCG in asthma-Eur. J. Pharma. (1983) 86 143-144).
These wheals were measured (surface in mm^2) at the inner side of the skin 30 mn after the injections and were taken off, put in 4 ml of formamide, incubated at 65° C. during 24 h in order to extract the dye and measure their coloration (optical density at 620 nm).
Groups of 6 Sprague-Dowley rats weighing 200 g were used and each rat received intradermal injections in two sites of the back. The experiment was performed in comparison with a reference compound, D 600 (methoxy verapamil), a calcium-blocker agent.
Treatments: Tested compounds were administered by IV route injected once simultaneously with the dye.

PAF-Acether receptor = biological target: T1, PAF-Acether receptor (Oryctolagus cuniculus, UniProt G1TEI7); test: Competition with 3H-PAF Acether binding, rabbit membrane platelet preparation; conditions: read-out: reduction of 3H-PAF Acether binding
T1 construct: using a rabbit membrane platelet preparation; from tissue; host or cells: rabbit platelets (membrane preparation)
Source text: The competition of the alternative binding of either ^3 H-PAF Acether or one of the Ginkgolides was evidenced by radioactive determinations using a rabbit membrane platelet preparation. (100% control=^3 H-PAF Acether alone).

[1] = tested on: rabbit plasma-rich platelets (PRP); test: Inhibition of PAF Acether-induced PA, rabbit PRP in vitro; assay type: cell-based; conditions: Oryctolagus cuniculus, Platelet, average of 10 assays, read-out: IC50 doses on PAF Acether-induced rabbit PA (PRP)
Description: (§1) The Inhibition of PAF Acether-induced PA has been studied on rabbit plasma-rich platelets (PRP). Two doses of PAF Acether were used (2.5 nM and 5 nM). The tested compound was added to the medium 3 minutes before PAF Acether and aggregation was followed by monitoring changes in electrical impedance (Whole-Blood aggregometer-chrono-Log); kadsurenone was simultaneously tested as reference compound and the IC50 molar doses of Ginkgolides A, B, C and M and of kadsurenone on PAF Acether-induced rabbit PA (PRP) have been calculated.
The results obtained are presented in the following table (average values for 10 assays for each dose) and FIG. 1: […]

[2] = tested on: rabbit plasma-rich platelets (PRP); test: Aggregation induced by other known aggregants (ADP, thrombine, calcium ionophore A 23187, collagen, adrenaline); assay type: cell-based; conditions: calcium ionophore A 23187, collagen and adrenaline
human PRP = test: Inhibition of PAF Acether-induced PA, human PRP in vitro; assay type: cell-based; conditions: PAF Acether 100 nM, read-out: IC Doses (PAF Acether-induced PA, human PRP)
Description: as §1
The inhibition of PAF Acether-induced PA has been studied on human PRP. The same protocol was used as for rabbit hereinabove.

human platelets = test: Ex vivo PAF Acether-induced PA in man after IV administration; conditions: IV 25 mg, PAF Acether 100 nM
Description: […] DMSO).
The same protocol described hereinabove for rabbit was used in man with only one dose of each Ginkgolide (IV 25 mg) and two blood takes (at 0.5 h and 1 h).

[3] = tested on: guinea-pig lung parenchymal strip; test: PAF Acether-induced contraction of superfused lung parenchymal strip; conditions: for inhibition at 30 µg/mL: Cavia porcellus, read-out: change of PAF Acether (3 ng)-induced contraction; for Contraction induced by PAF Acether (3 ng) (Arbitrary Units): preventive superfusion 30 μg/ml, average of 10 determinations
New-Zealand rabbits = test: PAF Acether-induced shock in the rabbit; assay type: in vivo; conditions: for Extravasation (O.D.): 2 mg/kg IV perfusion, 30 mn, optical density at 590 nm, average of 10 animals; for Behaviour: behavioural modifications / Behaviour: deaths: 2 mg/kg IV, PAF Acether 2 and 4 nmol/kg, 10 animals per batch
Description: Treatment: Tested compounds (Gingkolides A, B and C) or vehicle were perfused in the ear vein in 45 ml NaCl 0.9% for 1 hour before PAF Acether injection. Vehicle consisted of 1.5 ml of propylene glycol completed to 45 ml by isotonic NaCl buffer; Ginkgolides were administered at the dose of 2 mg/kg IV; the figures reported in the following table are the average values of the 10 animals of each batch.

Hartley guinea-pig = test: PAF Acether-induced bronchoconstriction in the anesthetized guinea-pig; assay type: in vivo; conditions: 1 mg/kg IV; for % of bronchoconstriction: 5 minutes before PAF Acether 60 ng/kg IV, % of maximal bronchoconstriction, average of 10 animals; for % of inhibition (bronchoconstriction): vs solvent in the same batch
Description: Method: (For details, see B. B. VARGAFTIG, J. LEFORT, F. WAL, M. CHIGNARD and M. C. MEDEIROS-Non-steroidal anti-inflammatory drugs of combined with anti-histamine and anti-serotonin agents interfere with the bronchial and platelet effects of PAF Acether-Enr. J. Pharm. (1982) 82 121-130). Male Hartley guinea-pig (400-500 g) were anesthetized with urethane 2 g/kg Ip., tracheotomised and ventilated by mean of a respiratory pump: 70-80 strokes mn, stroke volume 5 ml, a pneumothorax was done to abolish spontaneous respiration. The right jugular vein was catherized and used for injections.
The initial resistance was kept constant at 10 cm H2 O pressure according to the method of Konzett and Rossler and the overflowed airway was measured with a bronchospasm transducer UGO BASILE connected to a UGO BASILE recorder "GEMINI". Bronchial sensitivity of the animal was checked with acetylcholine (10-40 ng kg^-1 IV) and after constant response was obtained, there were injected, IV, first the propylene glycol and, five minutes later, 60 ng/kg of PAF Acether, which gave the control bronchoconstriction expressed as % of maximal bronchoconstriction given by clamping off the trachea. 40 minutes later, the tested compounds were administered by IV injection and, 5 minutes later, 60 ng/kg of PAF Acether by the same route. This experimentation was conducted on three batches of each 10 animals: first batch for Ginkgolide A, second one for Ginkgolide B and last one for Ginkgolide C, all at the 1 mg/kg dose. The figures of the following table are the average values for the 10 animals of each batch.

[4] = tested on: guinea-pig mesenteric artery; test: Opto-electronic follow-up of PAF Acether-induced thrombus, guinea-pig mesenteric artery; assay type: in vivo
Source text: In this experimental study, 20 guinea-pigs were used. […] Briefly summarized, this method consists in the dissection over a distance of 2 to 3 mm of a branch of the mesenteric artery following gently extraction of a loop of small intestine. By transillumination, the image of this arterial segment is projected onto a set of 30 light-depending resistances (LDR) arranged in two columns of 15 elements each. An LDR element has the property to change its internal resistance as a function of a variation of light intensity. Each LDR is connected into its own Wheatstone bridge, and the changes in light intensity due to thrombus formation will be recorded as variations in electrical potentials and registered as such via a multiplexing device.
In the present investigation, several discriminating parameters are recorded: (a) the t1 interval or the lag period (this is the time interval between the beginning of the PAF Acether superfusion and the first signs of thrombus formation; (b) the td interval is the duration of the thrombotic phenomenon; (c) the O(t) curve indicates the number of LDR elements covered by the thrombus image; (d) the D(t) curve represents during each 30×1/9×10^-2 sec interval the greatest potential deviation on one of the LDR elements covered by the thrombus image; (e) the T(t) curve represents the summation of the potentials registered on the LDR elements during a time interval of 30×1/9×10^-2 sec the TTV(t) curve results from the integration of the T(t) values in function of time; (f) mD, mT, and mO correspond to the maximal values registered on, respectively, the D(t), T(t), and O(t) curves; (g) TTV is the maximal value of the TTV(t) curve, whereas TVM is the value of this curve up to the point where mT is reached.
In a first series of experiments (10 animals) the effect of local superfusion with PAF Acether (10^-4 M) is investigated.
In a second series of experiments (10 animals) the effects of Ginkgolide B and of kadsurenone have been compared preventively and curatively.

T1 sequence (G1TEI7 1-342): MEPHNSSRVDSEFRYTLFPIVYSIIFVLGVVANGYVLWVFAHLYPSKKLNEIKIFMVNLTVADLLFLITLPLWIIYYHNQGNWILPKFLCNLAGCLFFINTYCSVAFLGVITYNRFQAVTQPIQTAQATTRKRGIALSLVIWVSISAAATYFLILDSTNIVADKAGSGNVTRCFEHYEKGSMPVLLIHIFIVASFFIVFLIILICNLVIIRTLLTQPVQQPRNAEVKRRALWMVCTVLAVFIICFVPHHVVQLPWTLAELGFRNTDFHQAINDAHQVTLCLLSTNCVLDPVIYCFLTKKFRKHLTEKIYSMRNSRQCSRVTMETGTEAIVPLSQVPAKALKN

| SMILES | PAF Acether induced wheal, Surface (Sprague-Dowley rats) [mm^2] | PAF Acether induced wheal, Coloration OD (Sprague-Dowley rats) [OD] | PAF Acether induced wheal, Coloration % decrease (Sprague-Dowley rats) [%] | PAF Acether induced wheal, Surface % decrease (Sprague-Dowley rats) [%] | inhibition at 10 µM (PAF-Acether receptor) [%] | IC50 ([1]; PAF Acether 2.5 nM) [µM] | IC50 ([1]; PAF Acether 5 nM) [µM] | effect against aggregation induced by other known aggregants [2] | IC50 (human PRP) [µM] | % of aggregation with respect to control (human platelets; blood take at 0.5 h) [%] | % of aggregation with respect to control (human platelets; blood take at 1.0 h) [%] | Contraction induced by PAF Acether (3 ng) (Arbitrary Units) [3] [Arbitrary Units] | Extravasation (O.D.) (New-Zealand rabbits; PAF Acether 2 nmol/kg) | Extravasation (O.D.) (New-Zealand rabbits; PAF Acether 4 nmol/kg) | Behaviour: behavioural modifications (New-Zealand rabbits) | Behaviour: deaths (New-Zealand rabbits) | % of bronchoconstriction (Hartley guinea-pig) [%] | % of inhibition (bronchoconstriction) (Hartley guinea-pig) [%] | other results |
| --- | --- | --- | --- | --- | --- | --- | --- | --- | --- | --- | --- | --- | --- | --- | --- | --- | --- | --- | --- |
| COc1ccc(CCN(C)CCCC(C#N)(c2cc(OC)c(OC)c(OC)c2)C(C)C)cc1OC (stereo not shown) [D 600, methoxy verapamil, reference compound] | 62.6 | 0.664 | -42 | -39 |  |  |  |  |  |  |  |  |  |  |  |  |  |  | deaths/6 (Sprague-Dowley rats; group of 6 rats): two |
| C[C@@H]1C(=O)O[C@H]2C[C@@]34[C@H]5C[C@@H](C(C)(C)C)[C@]36[C@@H](OC(=O)[C@@H]6O)O[C@@]4(C(=O)O5)[C@]21O [Ginkgolide A] | 64.3 | 0.631 | -45 | -37 | 67 | 8.32 | 13.2 | totally ineffective | 90 | 0 | 5.7 | 10.30 ± 2.33 | 0.903 | 0.881 | No behavioural | No death | 13.3 | 84.1 | inhibition at 30 µg/mL ([3]; 30 μg/ml, p < 0.001): 72.8% |
| CC1C(=O)OC2C(O)C34C5OC(=O)C3(OC3OC(=O)C(O)C34C(C(C)(C)C)C5O)C12O (stereo not shown) [Ginkgolide C] | 68.1 | 0.701 | -39 | -34 | 83 | 15.3 | 25.4 | totally ineffective | 150 | 0 | 10.6 | 11.08 ± 2.42 | 0.910 | 0.875 | No behavioural | No death | 17.0 | 78.6 | inhibition at 30 µg/mL [3]: 70.8% |
| CC1C(=O)OC2C1C13OC4OC(=O)C(O)C45C(C(C)(C)C)C(O)C(OC1=O)C35C2O (stereo not shown) [Ginkgolide M] |  |  |  |  |  | 122 | 20.2 | totally ineffective |  |  |  |  |  |  |  |  |  |  | inhibition at 100 µM (PAF-Acether receptor): 79% |
| C=CCC1=C[C@@]2(OC)C(=CC1=O)O[C@H](c1ccc(OC)c(OC)c1)[C@H]2C [Kadsurenone, kadsurenone, reference compound] |  |  |  |  |  | 9.94 | 14 |  | 130 |  |  |  |  |  |  |  |  |  | thrombus formation when superfused with PAF Acether (preventive) ([4]; PAF Acether superfusion): no thrombus appeared; time for disappearance of pre-formed thrombus (curative) ([4]; PAF Acether-induced thrombus): about 4.30 minutes |
